Test results from ChEMBL document CHEMBL3286240, “Inhibition of Enterococcus faecalis biofilm formation by highly active lactones and lactams analogues of rubrolides” (Eur J Med Chem, 2014).
≈ marks a conversion by molar mass, not a printed value.

test system: Enterococcus faecalis; assay: Antimicrobial activity against Enterococcus faecalis assessed as bacterial growth at 87.5 ug/ml after 20 hrs by microtiter plate assay; assay type: functional

Compound | Activity
COc1ccc(C)cc1C1=C(Br)C(=O)N(CC(C)C)/C1=C\c1cccc(Cl)c1 | 64.5%
COc1ccc(C)cc1C1=C(Br)C(=O)N(CC(C)C)/C1=C\c1ccccc1Cl | 95.3%
COc1ccc(Cl)cc1C1=C(Br)C(=O)N(CC(C)C)/C1=C\c1ccccc1Br | 100.8%
COc1cccc(/C=C2/C(c3cc(Cl)ccc3OC)=C(Br)C(=O)N2CC(C)C)c1 | 94.6%
COc1ccccc1C1=C(Br)C(=O)N(CC(C)C)/C1=C/c1ccc(C(F)(F)F)cc1 | -18.9%
COc1ccc(Br)cc1C1=C(Br)C(=O)N(CC(C)C)/C1=C/c1cccc(Cl)c1 | 98.2%

test system: Enterococcus faecalis; assay: Antimicrobial activity against Enterococcus faecalis assessed as bacterial growth at 43.8 ug/ml after 20 hrs by microtiter plate assay; assay type: functional

Compound | Activity
COc1ccc(C)cc1C1=C(Br)C(=O)N(CC(C)C)/C1=C\c1cccc(Cl)c1 | 61.8%
COc1ccc(C)cc1C1=C(Br)C(=O)N(CC(C)C)/C1=C\c1ccccc1Cl | 62.1%
COc1ccc(Cl)cc1C1=C(Br)C(=O)N(CC(C)C)/C1=C\c1ccccc1Br | 70%
COc1cccc(/C=C2/C(c3cc(Cl)ccc3OC)=C(Br)C(=O)N2CC(C)C)c1 | 55.6%
COc1ccccc1C1=C(Br)C(=O)N(CC(C)C)/C1=C/c1ccc(C(F)(F)F)cc1 | 17.5%
COc1ccc(Br)cc1C1=C(Br)C(=O)N(CC(C)C)/C1=C/c1cccc(Cl)c1 | 75.5%

test system: Enterococcus faecalis; assay: Antimicrobial activity against Enterococcus faecalis assessed as bacterial growth at 21.9 ug/ml after 20 hrs by microtiter plate assay; assay type: functional

Compound | Activity
COc1ccc(C)cc1C1=C(Br)C(=O)N(CC(C)C)/C1=C\c1cccc(Cl)c1 | 46.8%
COc1ccc(C)cc1C1=C(Br)C(=O)N(CC(C)C)/C1=C\c1ccccc1Cl | 52.2%
COc1ccc(Cl)cc1C1=C(Br)C(=O)N(CC(C)C)/C1=C\c1ccccc1Br | 61.5%
COc1cccc(/C=C2/C(c3cc(Cl)ccc3OC)=C(Br)C(=O)N2CC(C)C)c1 | 45.7%
COc1ccccc1C1=C(Br)C(=O)N(CC(C)C)/C1=C/c1ccc(C(F)(F)F)cc1 | 15.8%
COc1ccc(Br)cc1C1=C(Br)C(=O)N(CC(C)C)/C1=C/c1cccc(Cl)c1 | 67.3%

test system: Enterococcus faecalis; assay: Antimicrobial activity against Enterococcus faecalis assessed as bacterial growth at 10.9 ug/ml after 20 hrs by microtiter plate assay; assay type: functional

Compound | Activity
COc1ccc(C)cc1C1=C(Br)C(=O)N(CC(C)C)/C1=C\c1cccc(Cl)c1 | 34.4%
COc1ccc(C)cc1C1=C(Br)C(=O)N(CC(C)C)/C1=C\c1ccccc1Cl | 45.1%
COc1ccc(Cl)cc1C1=C(Br)C(=O)N(CC(C)C)/C1=C\c1ccccc1Br | 53.3%
COc1cccc(/C=C2/C(c3cc(Cl)ccc3OC)=C(Br)C(=O)N2CC(C)C)c1 | 39.3%
COc1ccccc1C1=C(Br)C(=O)N(CC(C)C)/C1=C/c1ccc(C(F)(F)F)cc1 | 11.1%
COc1ccc(Br)cc1C1=C(Br)C(=O)N(CC(C)C)/C1=C/c1cccc(Cl)c1 | 57.3%

test system: Enterococcus faecalis; assay: Antimicrobial activity against Enterococcus faecalis assessed as bacterial growth at 5.5 ug/ml after 20 hrs by microtiter plate assay; assay type: functional

Compound | Activity
COc1ccc(C)cc1C1=C(Br)C(=O)N(CC(C)C)/C1=C\c1cccc(Cl)c1 | 31.1%
COc1ccc(C)cc1C1=C(Br)C(=O)N(CC(C)C)/C1=C\c1ccccc1Cl | 41.9%
COc1ccc(Cl)cc1C1=C(Br)C(=O)N(CC(C)C)/C1=C\c1ccccc1Br | 35.1%
COc1cccc(/C=C2/C(c3cc(Cl)ccc3OC)=C(Br)C(=O)N2CC(C)C)c1 | 42.5%
COc1ccccc1C1=C(Br)C(=O)N(CC(C)C)/C1=C/c1ccc(C(F)(F)F)cc1 | 9.2%
COc1ccc(Br)cc1C1=C(Br)C(=O)N(CC(C)C)/C1=C/c1cccc(Cl)c1 | 48.8%

test system: Enterococcus faecalis; assay: Antimicrobial activity against Enterococcus faecalis assessed as bacterial growth at 2.73 ug/ml after 20 hrs by microtiter plate assay; assay type: functional

Compound | Activity
COc1ccc(C)cc1C1=C(Br)C(=O)N(CC(C)C)/C1=C\c1cccc(Cl)c1 | 14.5%
COc1ccc(C)cc1C1=C(Br)C(=O)N(CC(C)C)/C1=C\c1ccccc1Cl | 33%
COc1ccc(Cl)cc1C1=C(Br)C(=O)N(CC(C)C)/C1=C\c1ccccc1Br | 44.9%
COc1cccc(/C=C2/C(c3cc(Cl)ccc3OC)=C(Br)C(=O)N2CC(C)C)c1 | 29.1%
COc1ccccc1C1=C(Br)C(=O)N(CC(C)C)/C1=C/c1ccc(C(F)(F)F)cc1 | 10.9%
COc1ccc(Br)cc1C1=C(Br)C(=O)N(CC(C)C)/C1=C/c1cccc(Cl)c1 | 42.5%

test system: Enterococcus faecalis; assay: Antimicrobial activity against Enterococcus faecalis assessed as bacterial growth at 1.37 ug/ml after 20 hrs by microtiter plate assay; assay type: functional

Compound | Activity
COc1ccc(C)cc1C1=C(Br)C(=O)N(CC(C)C)/C1=C\c1cccc(Cl)c1 | 11.9%
COc1ccc(C)cc1C1=C(Br)C(=O)N(CC(C)C)/C1=C\c1ccccc1Cl | 24.6%
COc1ccc(Cl)cc1C1=C(Br)C(=O)N(CC(C)C)/C1=C\c1ccccc1Br | 45.1%
COc1cccc(/C=C2/C(c3cc(Cl)ccc3OC)=C(Br)C(=O)N2CC(C)C)c1 | 21%
COc1ccccc1C1=C(Br)C(=O)N(CC(C)C)/C1=C/c1ccc(C(F)(F)F)cc1 | 1.6%
COc1ccc(Br)cc1C1=C(Br)C(=O)N(CC(C)C)/C1=C/c1cccc(Cl)c1 | 33%

test system: Enterococcus faecalis; assay: Antimicrobial activity against Enterococcus faecalis assessed as bacterial growth at 0.68 ug/ml after 20 hrs by microtiter plate assay; assay type: functional

Compound | Activity
COc1ccc(C)cc1C1=C(Br)C(=O)N(CC(C)C)/C1=C\c1cccc(Cl)c1 | 11.6%
COc1ccc(C)cc1C1=C(Br)C(=O)N(CC(C)C)/C1=C\c1ccccc1Cl | 6.9%
COc1ccc(Cl)cc1C1=C(Br)C(=O)N(CC(C)C)/C1=C\c1ccccc1Br | 19.2%
COc1cccc(/C=C2/C(c3cc(Cl)ccc3OC)=C(Br)C(=O)N2CC(C)C)c1 | 5.9%
COc1ccccc1C1=C(Br)C(=O)N(CC(C)C)/C1=C/c1ccc(C(F)(F)F)cc1 | 2.3%
COc1ccc(Br)cc1C1=C(Br)C(=O)N(CC(C)C)/C1=C/c1cccc(Cl)c1 | 23.5%

test system: Enterococcus faecalis; assay: Antimicrobial activity against Enterococcus faecalis assessed as bacterial growth at 0.34 ug/ml after 20 hrs by microtiter plate assay; assay type: functional

Compound | Activity
COc1ccc(C)cc1C1=C(Br)C(=O)N(CC(C)C)/C1=C\c1cccc(Cl)c1 | 6.9%
COc1ccc(C)cc1C1=C(Br)C(=O)N(CC(C)C)/C1=C\c1ccccc1Cl | -7.4%
COc1ccc(Cl)cc1C1=C(Br)C(=O)N(CC(C)C)/C1=C\c1ccccc1Br | 0%
COc1cccc(/C=C2/C(c3cc(Cl)ccc3OC)=C(Br)C(=O)N2CC(C)C)c1 | 2.5%
COc1ccccc1C1=C(Br)C(=O)N(CC(C)C)/C1=C/c1ccc(C(F)(F)F)cc1 | 0.4%
COc1ccc(Br)cc1C1=C(Br)C(=O)N(CC(C)C)/C1=C/c1cccc(Cl)c1 | 20.1%

test system: Enterococcus faecalis; assay: Antimicrobial activity against Enterococcus faecalis assessed as bacterial growth at 0.17 ug/ml after 20 hrs by microtiter plate assay; assay type: functional

Compound | Activity
COc1ccc(C)cc1C1=C(Br)C(=O)N(CC(C)C)/C1=C\c1cccc(Cl)c1 | 6%
COc1ccc(C)cc1C1=C(Br)C(=O)N(CC(C)C)/C1=C\c1ccccc1Cl | -4.2%
COc1ccc(Cl)cc1C1=C(Br)C(=O)N(CC(C)C)/C1=C\c1ccccc1Br | -4.1%
COc1cccc(/C=C2/C(c3cc(Cl)ccc3OC)=C(Br)C(=O)N2CC(C)C)c1 | 0.2%
COc1ccccc1C1=C(Br)C(=O)N(CC(C)C)/C1=C/c1ccc(C(F)(F)F)cc1 | 3.3%
COc1ccc(Br)cc1C1=C(Br)C(=O)N(CC(C)C)/C1=C/c1cccc(Cl)c1 | 16.1%

test system: Enterococcus faecalis; assay: Antimicrobial activity against Enterococcus faecalis assessed as inhibition of biofilm formation after 20 hrs by crystal violet staining analysis; assay type: functional, organism-based

Compound | IC50
COc1ccc(C)cc1C1=C(Br)C(=O)N(CC(C)C)/C1=C\c1cccc(Cl)c1 | 62.6 µg/mL (≈ 136 µM)
COc1ccc(C)cc1C1=C(Br)C(=O)N(CC(C)C)/C1=C\c1ccccc1Cl | 1.09 µg/mL (≈ 2.37 µM)
COc1ccc(Cl)cc1C1=C(Br)C(=O)N(CC(C)C)/C1=C\c1ccccc1Br | 1.48 µg/mL (≈ 2.82 µM)
COc1cccc(/C=C2/C(c3cc(Cl)ccc3OC)=C(Br)C(=O)N2CC(C)C)c1 | 1.46 µg/mL (≈ 3.06 µM)
COc1ccccc1C1=C(Br)C(=O)N(CC(C)C)/C1=C/c1ccc(C(F)(F)F)cc1 | 2.96 µg/mL (≈ 6.16 µM)
COc1ccc(Br)cc1C1=C(Br)C(=O)N(CC(C)C)/C1=C/c1cccc(Cl)c1 | 3.46 µg/mL (≈ 6.58 µM)
